In data set [1] the target is T1, ERRγ (Homo sapiens, UniProt P62508).
T1 sequence (P62508 1-458): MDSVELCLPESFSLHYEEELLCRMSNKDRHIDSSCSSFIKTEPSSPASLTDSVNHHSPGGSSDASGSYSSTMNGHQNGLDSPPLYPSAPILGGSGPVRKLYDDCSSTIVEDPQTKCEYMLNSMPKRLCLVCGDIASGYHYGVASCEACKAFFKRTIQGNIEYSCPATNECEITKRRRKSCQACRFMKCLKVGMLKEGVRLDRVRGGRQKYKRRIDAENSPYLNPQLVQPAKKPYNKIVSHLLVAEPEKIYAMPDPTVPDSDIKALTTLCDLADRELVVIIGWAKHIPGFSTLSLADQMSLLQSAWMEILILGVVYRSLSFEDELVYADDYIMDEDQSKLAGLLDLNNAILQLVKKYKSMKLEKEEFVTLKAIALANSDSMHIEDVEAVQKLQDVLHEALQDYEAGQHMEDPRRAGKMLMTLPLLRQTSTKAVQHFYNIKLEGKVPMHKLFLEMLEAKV
Particulars: background statement; cited from earlier work.

Data set [2] addresses T2, human ERα (Homo sapiens, UniProt P03372).
T2 construct: Human ERα and ERβ were examined as full-length proteins using an estrogen receptor responsive reporter construct; expressed in transfected cells; host or cells: CV-1
T2 sequence (P03372 1-595): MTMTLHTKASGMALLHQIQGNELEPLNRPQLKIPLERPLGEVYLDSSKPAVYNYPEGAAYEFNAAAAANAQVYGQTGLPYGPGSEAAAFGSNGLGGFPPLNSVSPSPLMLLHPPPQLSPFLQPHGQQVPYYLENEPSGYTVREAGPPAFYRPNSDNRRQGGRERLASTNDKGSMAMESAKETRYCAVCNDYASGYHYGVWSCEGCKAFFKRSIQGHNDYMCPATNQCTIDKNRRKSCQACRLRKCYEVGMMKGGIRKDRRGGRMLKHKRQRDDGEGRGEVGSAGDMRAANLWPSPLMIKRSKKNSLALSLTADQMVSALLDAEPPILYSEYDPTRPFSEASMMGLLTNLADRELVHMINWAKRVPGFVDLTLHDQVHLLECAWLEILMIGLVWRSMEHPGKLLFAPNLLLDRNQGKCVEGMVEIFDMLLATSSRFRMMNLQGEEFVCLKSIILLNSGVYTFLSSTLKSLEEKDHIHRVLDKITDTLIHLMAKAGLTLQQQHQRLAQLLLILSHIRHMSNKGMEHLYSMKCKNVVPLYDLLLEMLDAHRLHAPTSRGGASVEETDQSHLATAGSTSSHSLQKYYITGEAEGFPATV
The experiment in a line: ERE-TK-luc reporter transactivation assay in CV-1 cells, full-length hERa. The data set is classed as cell-based. As for the experimental part:
(§1) Human ERα and ERβ were examined as full-length proteins using an estrogen receptor responsive reporter construct.
(§2) Suitable reporter gene constructs are well known to skilled workers in the fields of biochemistry and molecular biology. […] Other vectors known in the art can be used in the methods of the present invention.
(§3) CV-1 cells for the activation assays were grown in Dulbecco's modified Eagle's medium supplemented with 10% resin charcoal-stripped fetal bovine serum, 50 U/ml penicillin G and 50 μg/ml streptomycin sulfate (DMEM-FBS) at 37° C. in 5% CO2. One day prior to transfection, cells were plated to 50-80% confluence using phenol red free DMEM-FBS.

In data set [3] the target is T3, GAL-hERRa (human ERRα ligand binding domain fused to GAL4 DNA binding domain) (Homo sapiens, UniProt P11474).
T3 construct: expressed in transfected cells; host or cells: CV-1
T3 sequence (P11474 193-421 limits assumed): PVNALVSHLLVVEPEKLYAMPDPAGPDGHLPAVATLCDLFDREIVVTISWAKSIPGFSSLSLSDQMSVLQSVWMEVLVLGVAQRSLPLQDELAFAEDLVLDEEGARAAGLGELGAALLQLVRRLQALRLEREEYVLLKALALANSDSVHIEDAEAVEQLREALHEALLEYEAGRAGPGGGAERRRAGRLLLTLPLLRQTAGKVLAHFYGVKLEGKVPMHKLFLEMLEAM
As to the kind of experiment: GAL4 reporter transactivation assay in CV-1 cells, GAL-hERRa. The class given is cell-based.

Data set [4] has as its target T4, HRHN-GAL (yeast GAL4 DNA binding domain without receptor sequences) (Saccharomyces cerevisiae, UniProt P04386).
T4 construct: expressed in transfected cells; host or cells: CV-1
As to the kind of experiment: GAL4 reporter transactivation assay in CV-1 cells, control vector without receptor. The class given is cell-based, monkey.

The target of data set [5] is T5, human ERβ (Homo sapiens, UniProt Q92731).
T5 construct: Human ERα and ERβ were examined as full-length proteins using an estrogen receptor responsive reporter construct; expressed in transfected cells; host or cells: CV-1
The experiment in a line: ERE-TK-luc reporter transactivation assay in CV-1 cells, full-length hERb. The class given is cell-based. The procedure:
as §1, §2, §3

The target in data set [6] is T6, GAL-L-hERRb (human ERRβ ligand binding domain fused to GAL4 DNA binding domain) (Homo sapiens, UniProt O95718).
T6 construct: expressed in transfected cells; host or cells: CV-1
T6 sequence (O95718 208-432 limits assumed): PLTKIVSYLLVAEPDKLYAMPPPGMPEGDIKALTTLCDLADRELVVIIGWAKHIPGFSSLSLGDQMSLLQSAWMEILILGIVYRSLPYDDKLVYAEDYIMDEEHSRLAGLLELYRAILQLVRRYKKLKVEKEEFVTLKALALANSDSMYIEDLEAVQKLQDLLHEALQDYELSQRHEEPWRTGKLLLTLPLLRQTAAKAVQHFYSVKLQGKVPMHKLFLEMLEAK
As to the kind of experiment: GAL4 reporter transactivation assay in CV-1 cells, GAL-L-hERRb. The data set is classed as cell-based.

The target in data set [7] is T7, GAL-mERRg (mouse ERRγ ligand binding domain fused to GAL4 DNA binding domain) (Mus musculus, UniProt P62509).
T7 construct: expressed in transfected cells; host or cells: CV-1
T7 sequence (P62509 233-457 limits assumed): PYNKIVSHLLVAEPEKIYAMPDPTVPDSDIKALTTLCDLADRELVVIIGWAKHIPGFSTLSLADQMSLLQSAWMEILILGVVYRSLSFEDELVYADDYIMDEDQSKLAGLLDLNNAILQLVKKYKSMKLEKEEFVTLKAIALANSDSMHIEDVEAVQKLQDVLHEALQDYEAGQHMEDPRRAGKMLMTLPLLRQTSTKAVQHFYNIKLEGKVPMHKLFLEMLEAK
As to the kind of experiment: GAL4 reporter transactivation assay in CV-1 cells, GAL-mERRg. The class given is cell-based.

Where [8] appears, read: CV-1, reporter 0.42:vector 0.00875:PGC-1a 0.035, 30 μM.
The mark [9] stands for this setting: CV-1, reporter 0.42:vector 0.00875, no PGC-1a, 30 μM.

T4 sequence (P04386 1-147): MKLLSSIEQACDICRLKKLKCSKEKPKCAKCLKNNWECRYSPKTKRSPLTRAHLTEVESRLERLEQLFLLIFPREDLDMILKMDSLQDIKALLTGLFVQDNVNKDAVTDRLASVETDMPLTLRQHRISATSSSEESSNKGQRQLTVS
T5 sequence (Q92731 whole entry): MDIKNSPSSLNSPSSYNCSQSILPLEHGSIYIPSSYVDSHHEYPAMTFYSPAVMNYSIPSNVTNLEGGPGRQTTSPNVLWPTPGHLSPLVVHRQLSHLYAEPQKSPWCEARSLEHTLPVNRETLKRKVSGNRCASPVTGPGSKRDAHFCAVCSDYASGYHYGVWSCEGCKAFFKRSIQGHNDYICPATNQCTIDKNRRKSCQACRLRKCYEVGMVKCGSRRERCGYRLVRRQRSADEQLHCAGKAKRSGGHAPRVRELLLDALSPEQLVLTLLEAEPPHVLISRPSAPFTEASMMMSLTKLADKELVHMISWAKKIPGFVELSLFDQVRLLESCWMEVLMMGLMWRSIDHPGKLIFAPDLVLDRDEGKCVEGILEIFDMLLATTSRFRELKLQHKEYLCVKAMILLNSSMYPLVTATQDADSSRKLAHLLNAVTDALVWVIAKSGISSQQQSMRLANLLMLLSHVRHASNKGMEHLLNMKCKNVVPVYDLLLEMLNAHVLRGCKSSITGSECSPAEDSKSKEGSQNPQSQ

Regarding `Cc1cc(C)c(C=NNC(=O)c2ccc(O)cc2)[nH]1` [DY171, 4-Hydroxy-benzoic acid (3,5-dimethyl-1H-pyrrol-2-ylmethylene)-hydrazide], the melting point turned out to be 261.2 °C.

`CCc1ccc(C=NNC(=O)c2ccc(O)cc2)o1` [DY175, 4-Hydroxy-benzoic acid (5-ethyl-furan-2-ylmethylene)-hydrazide] displayed a melting point of 60.5 °C.

For the compound `O=C(NN=Cc1ccc(C(F)(F)F)c([N+](=O)[O-])c1)c1ccc(O)cc1` [DY170, 4-Hydroxy-benzoic acid (3-nitro-4-trifluoromethyl-benzylidene)-hydrazide], the melting point is 279.6 °C.

In turn, `O=C(NN=Cc1ccc(C(F)(F)F)cc1)c1ccc(O)cc1` [DY168, 4-Hydroxy-benzoic acid (4-trifluoromethyl-benzylidene)-hydrazide] displayed a melting point of 260.5 °C.

As to `Oc1nc(Cl)nc(NN=Cc2cc(C(F)(F)F)cc(C(F)(F)F)c2)n1` [DY176, 4-[N′-(3,5-Bis-trifluoromethyl-benzylidene)-hydrazino]-6-chloro-[1,3,5]triazin-2-ol], the melting point was 258.3 °C.

`COc1cc(/C=C(\C#N)C(=O)Nc2nnc(C(F)(F)F)s2)ccc1OCc1ccc(C(F)(F)F)cc1C(F)(F)F` [XCT790]: in data set [1], the “Activity on ERRγ” value was “no activity”.

Regarding `Cc1cc(C=NNC(=O)c2ccc(O)cc2)oc1C` [DY173, 4-Hydroxy-benzoic acid (4,5-dimethyl-furan-2-ylmethylene)-hydrazide], the melting point amounted to 251.4 °C.

On to `Cc1[nH]c(C=NNC(=O)c2ccc(O)cc2)c(C)c1Br` [DY172, 4-Hydroxy-benzoic acid (4-bromo-3,5-dimethyl-1H-pyrrol-2-ylmethylene)-hydrazide], for which the melting point stood at 235.4 °C.

As for `O=C(NN=Cc1cccc(C(F)(F)F)c1Cl)c1ccc(O)cc1` [DY165, 4-Hydroxy-benzoic acid (2-chloro-3-trifluoromethyl-benzylidene)-hydrazide], the melting point was 261.5 °C.

For the compound `CCc1ccc(C=NNC(=O)c2ccc(O)cc2)s1` [DY164, 4-Hydroxy-benzoic acid (5-ethyl-thiophen-2-ylmethylene)-hydrazide], the melting point was 194.5 °C. Further, the “Fold Activation, ERE-TK-luc, hERa” value in data set [2] (Table 7, CV-1, drug conc 30 μM) is 1.30 fold. In data set [2] (specificity for ERRs), the “Activation of ERa” value is recorded as “do not activate”. In addition, the “Fold activation, GAL-hERRa + PGC-1a” value in data set [3] (setting [8]) came out at 2.75 fold. In data set [3] (setting [9]), the “Fold activation, GAL-hERRa” value was 1.74 fold. In data set [3] (in the presence of PGC-1a), the “Activation of ERRα” value was “can activate”. For the same compound, the “Fold activation, HRHN-GAL” value in data set [4] (reporter 0.42:vector 0.00875, no PGC-1a, 30 μM) came to 1.46 fold. For the same compound, the “Fold activation, HRHN-GAL + PGC-1a” value in data set [4] (reporter 0.42:vector 0.00875:PGC-1a 0.035, 30 μM) is given as 1.62 fold. In data set [5] (Table 7, CV-1, drug conc 30 μM), the “Fold Activation, ERE-TK-luc, hERb” value amounted to 1.74 fold. In addition, the “Activation of ERb” value in data set [5] (specificity for ERRs) is “do not activate”. Moreover, in data set [6] (setting [8]), the “Fold activation, GAL-L-hERRb + PGC-1a” value is 2.34 fold. Moreover, the “Fold activation, GAL-L-hERRb” value in data set [6] (setting [9]) came out at 1.89 fold. Further, the “Activation of ERRβ” value in data set [6] (in the presence of PGC-1a) is given as “can activate”. The “Fold activation, GAL-mERRg + PGC-1a” value in data set [7] (setting [8]) came to 2.45 fold. Further, the “Fold activation, GAL-mERRg” value in data set [7] (setting [9]) is reported as 2.10 fold. Moreover, in data set [7] (in the presence of PGC-1a), the “Activation of ERRγ” value is reported as “can activate”.

`Cc1ccc(C=NNC(=O)c2ccc(O)cc2)s1` [DY166, 4-Hydroxy-benzoic acid (5-methyl-thiophen-2-ylmethylene)-hydrazide] registered a melting point of 215.7 °C.

(Values after patent US9085550B2, “Ligands for estrogen related receptors and methods for synthesis of said ligands” (CITY OF HOPE, priority 2005, dated 2015).)
